Laboratory results taken from US8999296B2, “Method of detecting bladder cancer” (Kochi University, priority 2008, dated 2015).

What was measured:
bladder cancer [1] = assay: Fluorescence diagnosis in bladder cancer patients grouped by disease stage (pTis, pTa, pT1, pT2, pT3), Example 2; type: in vivo, human; details: 50 bladder cancer patients, stages pTis, dosing as in Example 1
Experimental: ALA was injected into the bladder or administered orally similarly to Example 1 to bladder cancer patients who had been grouped according to the disease stages based on the intramural invasion depth of the primary tumor: 6 cases of pTis (intraepithelial cancer), 27 cases of pTa (without invasion), 9 cases of pT1 (with invasion to submucosal connective tissue), 6 cases of pT2 (with muscle invasion), 2 cases of pT3 (with invasion to pericystic adipose tissue) (50 cases for total number of patients). […] This confirmed that oral administration is effective in a diagnosis method for bladder cancer at every disease stage.

bladder cancer [2] = assay: Intraoperative photodynamic diagnosis of bladder cancer with ALA-HCl (video camera system and VLD-M1 fluorescence intensity), Example 1; type: in vivo, human; details: for Fluorescence intensity (relative intensity) by VLD-M1: irradiation at 405 nm, PpIX fluorescence at 635 nm, one subject
Experimental: Intraoperative diagnosis using 5-aminolevulinic acid hydrochloride (ALA-HCl) was carried out for two subjects who are in the almost same progression stage of bladder cancer. The subjects were administered ALA-HCl respectively by bladder instillation and by oral intake. Bladder instillation was conducted on the day of operation by dissolving 1.5 g of ALA-HCl in 50 mL of a 8.4% sodium bicarbonate (sodium hydrogen carbonate: NaHCO3) to adjust pH (median pH of 8.0 (pH 7.8-8.2)), filtrating the dissolved ALA-HCl solution with a 0.22 μm filter, and then injecting this dissolved solution (50 mL) into the bladder of a subject. Retention time in the bladder was set for 120-150 min ([…]) and ALA was eliminated just prior to the operation. On the other hand, oral intake was carried out by dissolving ALA (maximum of 1 g) in 50 mL of a 5% dextrose solution to 20 mg/kg, and the ALA dissolved solution (50 mL) was orally administered to the other subject in the morning (4 hours before commencement of the operation) without giving breakfast. Diagnosis was conducted based on the diagnostic imaging and fluorescent intensity with the use of a video camera system: Endovision TELECAM SL/IPM-PPDSystem (KARL STORZ) and VLD-M1 (M&M). The video camera system was inserted via the urethra and the red light part was observed after irradiating a blue fluorescence at 380-440 nm. Further, VLD-M1 was inserted and fluorescence intensity (relative intensity) at the red light part was observed after irradiating a blue fluorescence at 405 nm.
In addition, at 635 nm which is the […] for protoporphyrin IX (PpIX), it was confirmed as shown in Table 1 that the fluorescence intensity was higher in the case of oral intake than in the case of bladder instillation.

## Cl.NCC(=O)CCC(=O)O [ALA, 5-aminolevulinic acid hydrochloride]
Bladder cancer [1]
  Fluorescence, oral administration versus injection into the bladder (FIGS. 3-6): fluorescence was more intensive when ALA was orally administered than when injected into the bladder
Bladder cancer [2]; bladder instillation of ALA (1.5 g ALA-HCl in 50 mL 8.4% NaHCO3)
  Fluorescence intensity (relative intensity) by VLD-M1: 20153
Bladder cancer [2]; oral intake of ALA (20 mg/kg, 4 hours before operation)
  Fluorescence intensity (relative intensity) by VLD-M1: 48623
Bladder cancer [2]; oral intake versus bladder instillation, irradiation at 380-440 nm, red light part observed
  Identification of the site of bladder cancer by diagnostic imaging (FIGS. 1 and 2): more remarkably identified in the case of oral intake than in the case of bladder instillation
